Legend:
[1] = system: normal rats; assay: Induction of stereotyped behaviour in normal rats (stereotypy scoring); format: in vivo, rat; details: for duration of stereotypy: 300 min experiment; for stereotypy (overall effect): male Wistar rats, all doses tested; for stereotypy (overall effect) / onset of stereotypy: s.c.; for onset of stereotypy: 10 mg/kg stated for (S,S′),(S,R′)-amphetaminil; for differences in overall stereotypy between groups: total stereotypy score, 0.1-10 mg/kg s.c. vs vehicle
Experimental: (§1) Male Wistar rats (n=4 per group) were randomly allocated to each drug treatment group. Drugs were administered such that, with the exception of fusaric acid, each rat in each group received all doses of the drug or vehicle in a semi random manner according to the modified Latin Square in Table 1. Compounds were administered at the doses: 0.1, 1 and 10 mg/kg s.c. in 100% DMS0 (vehicle). Amphetamine was administered at 0.1, 1 and 5 mg/kg s.c. in saline (vehicle). Fusaric acid was administered at 20, 40 and 80 mg/kg s.c. in saline (vehicle). Rats received each dose of fusaric acid (20, 40 and 80 mg/kg), doses given in order, starting with vehicle. A one-week interval was provided between doses.
(§2) At the start of the experiment, rats were placed in standard perspex behaviour boxes with a visible grid on the floor to allow determination of locomotor activity. The animals were allowed to acclimatise to their environment for 1 hour prior to drug/saline administration. Following drug administration animals were returned to the behaviour cages and locomotor activity was assessed for a further 5 hours or until baseline (zero activity for 30 minutes) was achieved, whichever was sooner. Locomotor activity was assessed by videoing the rats throughout the experiment, and counting the number of times a rat crossed a grid line during a period of 5 minutes every 10 minutes. Throughout the experiment animals were scored for stereotyped behaviours for 15 seconds every 10 minutes by a trained observer using the scoring methods described in Table 2.
The mean and standard error for stereotypy activity for 15 seconds every 10 minutes for each rat at each time point was determined. […] Cumulative activity during the 300 min was also calculated, and the effect of dose of drug was analyzed by Kruskall Wallis one-way ANOVA (GraphPad Prizm). Data was also analysed for significant fit to a sigmoidal-shaped log dose-response curve using non-linear regression analysis (GraphPad Prizm)

[2] = system: children with hyperkinetic syndrome; details: Pacit et al., 1996; cited from earlier work
[3] = system: normal rats; assay: Locomotor activity in normal rats (grid line crossings); format: in vivo, rat; details: for locomotor activity (overall effect): male Wistar rats, all doses tested; for cumulative locomotor activity: vs vehicle
Experimental: as §1, §2
The mean and standard error for locomotor activity over 10 minutes for each rat at each time point was determined. […] Cumulative activity, during the 300 min was also calculated, and the effect of dose of drug was analyzed by one-way repeated measures ANOVA followed by Dunnett's t-test (GraphPad Prizm). Data was also analysed for significant fit to a sigmoidal-shaped log dose-response curve using non-linear regression analysis (GraphPad Prizm).

| SMILES | duration of stereotypy ([1]; 10 mg/kg s.c.) | stereotypy (overall effect) [1] | onset of stereotypy [1] | differences in overall stereotypy between groups [1] | efficacy in the treatment of ADHD in children [2] | locomotor activity (overall effect) ([3]; s.c.) | share of the racemate's pharmacological activity, total stereotypy score (FIGS. 7B and 8B) ([1]; 1 mg/kg) | peak of stereotypy ([1]; 10 mg/kg s.c.) | share of the racemate's pharmacological activity, cumulative locomotor activity (FIGS. 3B and 4B) ([3]; 1 mg/kg) | cumulative locomotor activity ([3]; 10 mg/kg s.c.) | onset of locomotor activity after administration ([3]; s.c.) | peak of locomotor activity ([3]; s.c.) | overall stereotypy during the 300 min duration of the experiment ([1]; 5 mg/kg s.c.) | onset of locomotor activity ([3]; 5 mg/kg s.c.) | time of maximum effect on locomotor activity after administration ([3]; 5 mg/kg s.c.) | cumulative locomotor activity ([3]; 5 mg/kg s.c., over the duration of the experiment) |
| --- | --- | --- | --- | --- | --- | --- | --- | --- | --- | --- | --- | --- | --- | --- | --- | --- |
| CC(Cc1ccccc1)NC(C#N)c1ccccc1 (racemic) [Racemic amphetaminil, alpha-[(1-methyl-2-phenylethyl)amino]benzeneacetonitrile] | sustained for the duration of the experiment | increased stereotypy in a log dose-related manner | rapid | did not reach statistical significance | efficacy | increased locomotor activity only at the highest dose of 10 mg/kg | – | – | – | – | – | – | – | – | – | – |
| C[C@@H](Cc1ccccc1)NC(C#N)c1ccccc1 (stereo partly drawn) [(S,S′),(S,R′)-Amphetaminil, alpha-[(1S-Methyl-2-phenylethyl)amino]benzeneacetonitrile] | sustained during the 300 min duration of the experiment | increased stereotypy in a log dose-related manner | rapid | did not reach statistical significance | – | increased locomotor activity in a dose-related manner | responsible for nearly all of the pharmacological activity of the racemate | 100 min | responsible for nearly all of the pharmacological activity of the racemate | significant effect | ≤ 30 min | 60 min | – | – | – | – |
| CC(N)Cc1ccccc1 (centres unmarked) [Amphetamine] | – | log dose-related increase stereotypy | – | – | – | dose-related increase in locomotor activity | – | – | – | – | – | – | tended to increase | rapid | 30 min | significantly increased |

— US20030096004A1, “(S,S'),(S,R')-amphetaminil, compositions and uses thereof” (priority 2001, published 2003)
